The target in one assay is DNA topoisomerase 2-beta (Homo sapiens, UniProt Q02880).
Assay [1] deals with AP2-associated protein kinase 1 (Homo sapiens, UniProt Q2M2I8).
Assay [2] has as its target T1, Bone morphogenetic protein receptor type-2 (Homo sapiens, UniProt Q13873).
T1 sequence (Q13873 whole entry): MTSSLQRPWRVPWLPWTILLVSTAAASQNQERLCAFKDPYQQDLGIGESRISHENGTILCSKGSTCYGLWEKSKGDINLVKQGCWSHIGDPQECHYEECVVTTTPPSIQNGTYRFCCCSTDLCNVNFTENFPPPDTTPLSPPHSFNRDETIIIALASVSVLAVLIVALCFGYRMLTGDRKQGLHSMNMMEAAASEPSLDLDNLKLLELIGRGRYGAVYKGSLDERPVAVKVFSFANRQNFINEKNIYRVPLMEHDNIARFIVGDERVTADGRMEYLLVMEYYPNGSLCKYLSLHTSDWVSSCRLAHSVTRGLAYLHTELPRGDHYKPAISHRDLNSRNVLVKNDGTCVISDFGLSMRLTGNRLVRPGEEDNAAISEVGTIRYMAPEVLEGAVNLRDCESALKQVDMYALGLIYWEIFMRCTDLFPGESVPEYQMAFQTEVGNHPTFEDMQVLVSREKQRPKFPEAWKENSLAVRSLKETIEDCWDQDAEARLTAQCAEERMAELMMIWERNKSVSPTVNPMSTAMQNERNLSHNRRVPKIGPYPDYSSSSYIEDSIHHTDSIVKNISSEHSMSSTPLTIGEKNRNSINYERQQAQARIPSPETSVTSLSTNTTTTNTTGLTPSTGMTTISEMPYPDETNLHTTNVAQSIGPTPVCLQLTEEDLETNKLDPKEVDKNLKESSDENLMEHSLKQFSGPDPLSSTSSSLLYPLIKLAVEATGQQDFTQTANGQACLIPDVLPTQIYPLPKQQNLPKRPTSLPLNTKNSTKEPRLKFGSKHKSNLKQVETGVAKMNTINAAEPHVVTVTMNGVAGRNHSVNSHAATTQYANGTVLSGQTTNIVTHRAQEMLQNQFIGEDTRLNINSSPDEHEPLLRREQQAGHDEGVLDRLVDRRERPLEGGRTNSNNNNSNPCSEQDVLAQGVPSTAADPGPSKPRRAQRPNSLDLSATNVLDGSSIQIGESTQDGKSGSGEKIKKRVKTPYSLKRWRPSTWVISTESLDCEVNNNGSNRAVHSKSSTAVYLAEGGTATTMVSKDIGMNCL

Assay [3] addresses T2, Uncharacterized protein FLJ45252 (Homo sapiens, UniProt Q6ZSR9).
T2 sequence (Q6ZSR9 whole entry): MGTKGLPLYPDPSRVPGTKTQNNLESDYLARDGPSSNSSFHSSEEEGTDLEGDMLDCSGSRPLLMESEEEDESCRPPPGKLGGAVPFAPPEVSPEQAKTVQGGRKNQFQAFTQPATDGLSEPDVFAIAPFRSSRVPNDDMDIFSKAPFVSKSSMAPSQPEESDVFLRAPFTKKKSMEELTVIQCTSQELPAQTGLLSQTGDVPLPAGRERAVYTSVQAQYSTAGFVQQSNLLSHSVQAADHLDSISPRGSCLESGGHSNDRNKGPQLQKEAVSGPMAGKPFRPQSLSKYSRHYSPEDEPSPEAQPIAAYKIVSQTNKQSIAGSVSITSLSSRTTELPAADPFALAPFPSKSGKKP
The settings on record: read-out: Kd apparent; k-562, colo 205, sk-n-be(2) and mv-4-11.

Assay [4] deals with Guanine nucleotide-binding protein G(i) subunit alpha-2 (Homo sapiens, UniProt P04899).
Assay [5] has as its target NADH dehydrogenase [ubiquinone] 1 alpha subcomplex subunit 13 (Homo sapiens, UniProt Q9P0J0).
The next assay deals with Activin receptor type-2B (Homo sapiens, UniProt Q13705).
Assay [6] addresses T3, Dual specificity mitogen-activated protein kinase kinase 3 (Homo sapiens, UniProt P46734).
T3 sequence (P46734 whole entry): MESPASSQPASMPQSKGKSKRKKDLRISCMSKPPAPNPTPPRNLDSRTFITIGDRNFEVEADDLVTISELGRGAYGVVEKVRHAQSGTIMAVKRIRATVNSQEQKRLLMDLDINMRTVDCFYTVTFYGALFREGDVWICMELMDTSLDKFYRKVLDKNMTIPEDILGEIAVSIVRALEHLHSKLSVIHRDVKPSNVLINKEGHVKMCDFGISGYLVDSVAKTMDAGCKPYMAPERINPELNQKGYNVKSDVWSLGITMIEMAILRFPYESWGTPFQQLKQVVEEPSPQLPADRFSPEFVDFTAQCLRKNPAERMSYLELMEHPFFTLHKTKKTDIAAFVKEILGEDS

Assay [7] deals with Dual specificity mitogen-activated protein kinase kinase 2 (Homo sapiens, UniProt P36507).

Calls of active or inactive are those of the source.

The values that follow come from ChEMBL document CHEMBL3991601, “The target landscape of clinical kinase drugs” (Science, 2017).
Note: in the data inactive means no Kd found up to 30 µM.

NADH dehydrogenase [ubiquinone] 1 alpha subcomplex subunit 13, sequence (Q9P0J0 whole entry, one chain of several): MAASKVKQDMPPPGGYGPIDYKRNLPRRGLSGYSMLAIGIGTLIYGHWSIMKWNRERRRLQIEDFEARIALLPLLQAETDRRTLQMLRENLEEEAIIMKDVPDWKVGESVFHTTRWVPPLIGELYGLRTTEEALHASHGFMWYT
Guanine nucleotide-binding protein G(i) subunit alpha-2, sequence (P04899 whole entry): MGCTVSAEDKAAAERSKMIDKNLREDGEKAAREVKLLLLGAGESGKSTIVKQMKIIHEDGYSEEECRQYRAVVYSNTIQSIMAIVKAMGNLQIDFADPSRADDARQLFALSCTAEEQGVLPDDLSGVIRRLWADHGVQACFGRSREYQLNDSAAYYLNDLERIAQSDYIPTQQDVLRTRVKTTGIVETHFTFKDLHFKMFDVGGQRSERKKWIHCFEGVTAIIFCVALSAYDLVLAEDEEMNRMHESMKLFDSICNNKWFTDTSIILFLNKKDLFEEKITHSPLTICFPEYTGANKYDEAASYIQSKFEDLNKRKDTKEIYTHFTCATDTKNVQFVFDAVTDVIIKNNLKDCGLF
AP2-associated protein kinase 1, sequence (Q2M2I8 whole entry): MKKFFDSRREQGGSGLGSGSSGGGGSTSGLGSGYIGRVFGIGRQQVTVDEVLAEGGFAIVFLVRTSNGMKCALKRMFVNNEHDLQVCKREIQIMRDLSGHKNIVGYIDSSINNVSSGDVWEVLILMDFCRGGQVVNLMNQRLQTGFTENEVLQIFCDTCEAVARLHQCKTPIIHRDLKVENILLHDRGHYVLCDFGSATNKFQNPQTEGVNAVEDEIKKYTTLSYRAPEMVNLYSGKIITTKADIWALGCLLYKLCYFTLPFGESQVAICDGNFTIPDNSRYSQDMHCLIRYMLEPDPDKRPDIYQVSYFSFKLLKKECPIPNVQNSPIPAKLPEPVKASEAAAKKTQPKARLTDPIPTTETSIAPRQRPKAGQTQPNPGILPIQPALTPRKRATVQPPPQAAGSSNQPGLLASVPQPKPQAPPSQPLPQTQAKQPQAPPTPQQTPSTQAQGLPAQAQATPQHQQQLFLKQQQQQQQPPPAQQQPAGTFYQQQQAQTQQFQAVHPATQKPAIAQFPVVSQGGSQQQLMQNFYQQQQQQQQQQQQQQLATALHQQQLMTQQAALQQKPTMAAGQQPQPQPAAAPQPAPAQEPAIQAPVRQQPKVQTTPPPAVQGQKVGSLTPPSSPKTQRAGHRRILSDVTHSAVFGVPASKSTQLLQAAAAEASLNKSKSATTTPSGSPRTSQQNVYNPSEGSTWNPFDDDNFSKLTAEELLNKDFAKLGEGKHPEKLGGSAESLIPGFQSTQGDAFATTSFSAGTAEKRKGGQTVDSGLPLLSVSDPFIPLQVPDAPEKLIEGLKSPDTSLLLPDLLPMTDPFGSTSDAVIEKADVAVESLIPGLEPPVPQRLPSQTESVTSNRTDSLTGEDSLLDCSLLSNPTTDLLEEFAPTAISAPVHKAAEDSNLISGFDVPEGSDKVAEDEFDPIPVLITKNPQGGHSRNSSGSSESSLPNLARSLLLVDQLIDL
Dual specificity mitogen-activated protein kinase kinase 2, sequence (P36507 whole entry): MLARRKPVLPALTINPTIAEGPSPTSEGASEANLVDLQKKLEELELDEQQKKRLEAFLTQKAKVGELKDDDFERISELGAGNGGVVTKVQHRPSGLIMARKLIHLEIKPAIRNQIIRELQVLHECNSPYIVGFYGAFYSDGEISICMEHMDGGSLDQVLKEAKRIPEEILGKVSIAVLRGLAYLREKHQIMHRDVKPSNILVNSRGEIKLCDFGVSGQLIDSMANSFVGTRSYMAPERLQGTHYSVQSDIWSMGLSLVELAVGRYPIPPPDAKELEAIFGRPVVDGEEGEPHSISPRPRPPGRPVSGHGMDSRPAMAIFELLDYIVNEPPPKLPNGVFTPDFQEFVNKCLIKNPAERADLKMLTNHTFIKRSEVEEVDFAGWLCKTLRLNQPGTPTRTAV
Activin receptor type-2B, sequence (Q13705 whole entry): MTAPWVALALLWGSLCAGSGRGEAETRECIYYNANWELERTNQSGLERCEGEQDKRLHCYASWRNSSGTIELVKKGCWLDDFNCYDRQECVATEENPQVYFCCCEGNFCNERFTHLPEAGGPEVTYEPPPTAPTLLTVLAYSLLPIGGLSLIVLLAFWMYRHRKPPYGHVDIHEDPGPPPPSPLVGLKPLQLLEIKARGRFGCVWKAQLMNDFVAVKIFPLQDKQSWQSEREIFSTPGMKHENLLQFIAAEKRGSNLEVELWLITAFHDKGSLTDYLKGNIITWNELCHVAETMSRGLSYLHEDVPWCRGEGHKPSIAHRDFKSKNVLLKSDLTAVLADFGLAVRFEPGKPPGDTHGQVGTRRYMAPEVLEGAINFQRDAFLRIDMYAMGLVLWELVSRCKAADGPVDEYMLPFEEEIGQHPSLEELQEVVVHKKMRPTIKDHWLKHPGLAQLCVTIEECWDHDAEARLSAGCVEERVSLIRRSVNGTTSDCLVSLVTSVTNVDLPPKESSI
DNA topoisomerase 2-beta, sequence (Q02880 whole entry): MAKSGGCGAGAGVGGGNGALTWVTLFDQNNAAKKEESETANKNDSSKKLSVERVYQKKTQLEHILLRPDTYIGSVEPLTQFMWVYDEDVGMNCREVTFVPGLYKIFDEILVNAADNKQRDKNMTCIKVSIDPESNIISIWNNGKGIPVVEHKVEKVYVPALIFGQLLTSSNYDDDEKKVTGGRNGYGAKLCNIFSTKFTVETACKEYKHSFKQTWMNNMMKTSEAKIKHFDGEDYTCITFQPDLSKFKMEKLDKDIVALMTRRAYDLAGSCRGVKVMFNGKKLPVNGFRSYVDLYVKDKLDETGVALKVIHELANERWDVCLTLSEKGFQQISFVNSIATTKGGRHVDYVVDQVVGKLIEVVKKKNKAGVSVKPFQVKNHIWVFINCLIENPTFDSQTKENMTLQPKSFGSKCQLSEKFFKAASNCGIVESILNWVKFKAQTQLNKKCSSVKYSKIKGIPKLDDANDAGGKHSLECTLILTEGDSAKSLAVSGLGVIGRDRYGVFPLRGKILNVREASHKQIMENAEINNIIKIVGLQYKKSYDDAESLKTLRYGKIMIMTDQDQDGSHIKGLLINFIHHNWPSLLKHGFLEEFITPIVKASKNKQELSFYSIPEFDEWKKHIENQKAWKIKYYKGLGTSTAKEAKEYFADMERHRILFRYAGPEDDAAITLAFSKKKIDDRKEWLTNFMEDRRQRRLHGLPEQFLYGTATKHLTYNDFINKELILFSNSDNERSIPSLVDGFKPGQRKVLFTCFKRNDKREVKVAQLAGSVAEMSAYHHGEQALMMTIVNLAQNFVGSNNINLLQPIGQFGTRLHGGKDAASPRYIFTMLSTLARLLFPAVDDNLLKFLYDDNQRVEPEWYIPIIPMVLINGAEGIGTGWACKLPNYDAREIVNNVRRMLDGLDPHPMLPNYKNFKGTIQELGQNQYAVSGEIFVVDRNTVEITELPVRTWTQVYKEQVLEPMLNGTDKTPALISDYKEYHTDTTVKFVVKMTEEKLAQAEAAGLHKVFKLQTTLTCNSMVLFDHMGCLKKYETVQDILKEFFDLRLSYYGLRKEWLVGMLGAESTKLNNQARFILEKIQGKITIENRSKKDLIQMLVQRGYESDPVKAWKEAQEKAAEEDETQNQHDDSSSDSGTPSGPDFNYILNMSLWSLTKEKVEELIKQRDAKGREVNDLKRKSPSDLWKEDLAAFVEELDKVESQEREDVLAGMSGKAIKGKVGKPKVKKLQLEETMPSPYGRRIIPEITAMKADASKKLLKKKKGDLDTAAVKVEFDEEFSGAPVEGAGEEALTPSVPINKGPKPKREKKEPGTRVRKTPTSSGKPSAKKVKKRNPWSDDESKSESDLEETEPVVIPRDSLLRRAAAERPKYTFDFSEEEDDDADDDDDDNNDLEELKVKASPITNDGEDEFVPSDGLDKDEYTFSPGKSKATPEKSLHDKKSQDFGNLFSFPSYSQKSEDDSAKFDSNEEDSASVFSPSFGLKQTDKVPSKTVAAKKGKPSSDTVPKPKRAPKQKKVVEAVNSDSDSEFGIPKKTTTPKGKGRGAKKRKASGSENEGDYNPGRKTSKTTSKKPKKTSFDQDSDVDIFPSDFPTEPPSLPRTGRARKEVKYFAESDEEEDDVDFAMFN

As for `COc1cc2ncnc(Nc3ccc(F)c(Cl)c3)c2cc1NC(=O)/C=C/CN1CCCCC1` [DACOMITINIB ANHYDROUS], the Kd (on DNA topoisomerase 2-beta; in [1]; in [2]; in assay [3]; in [4]; in assay [5]) was > 30 µM (inactive) throughout. The Kd (on Activin receptor type-2B; in assay [6]; in [7]) was > 30 µM (inactive) throughout.

Regarding `COCCN1CCN(Cc2ccc(-c3n[nH]c4c3C(=O)c3c(NC(=O)NN5CCOCC5)cccc3-4)cc2)CC1` [RGB-286638], the Kd on DNA topoisomerase 2-beta was > 30 µM (inactive); in assay [1], 0.022 µM (active); in assay [2] it was 0.153 µM; in assay [3], 0.022 µM (active); in assay [4], > 30 µM (inactive); in [5] it was > 30 µM (inactive). Also, the Kd (on Activin receptor type-2B; in assay [6]; in assay [7]) was > 30 µM (inactive) throughout.

As to `CCN1CCN(Cc2ccc(Nc3ncc(F)c(-c4cc(F)c5nc(C)n(C(C)C)c5c4)n3)nc2)CC1` [ABEMACICLIB], the Kd is > 30 µM (inactive) at DNA topoisomerase 2-beta; > 30 µM (inactive) in assay [2]; 0.088 µM (active) in assay [3]; > 30 µM (inactive) in assay [4]; > 30 µM (inactive) in assay [5]; > 30 µM (inactive) on Activin receptor type-2B. Further, the Kd in [6] and in assay [7] was > 30 µM (inactive) in each case.

For `Cc1c(Cn2c(C)nc3c(C(=O)O)cc(N4CCOCC4)cc32)cccc1C(F)(F)F` [GSK-2636771], the Kd (at DNA topoisomerase 2-beta; in assay [1]; in [2]; in [3]; in assay [5]; at Activin receptor type-2B) was > 30 µM (inactive) throughout. Further, the Kd in assay [6] and in [7] was > 30 µM (inactive) in each case.

For the compound `C[C@@H]1COC(Nc2ccc3ncnc(Nc4ccc(OCc5nccs5)c(Cl)c4)c3c2)=N1` [VARLITINIB], the Kd (at DNA topoisomerase 2-beta; in [1]; in assay [2]; in [3]; in [5]; at Activin receptor type-2B) was > 30 µM (inactive) throughout. The Kd in assay [6] and in [7] was > 30 µM (inactive) throughout.

With `CCOc1ccn(-c2ccc(F)cc2)c(=O)c1C(=O)Nc1ccc(Oc2ccnc(N)c2Cl)c(F)c1` [BMS-777607], the Kd (at DNA topoisomerase 2-beta; in [1]; in assay [4]; at Activin receptor type-2B; in assay [7]) was > 30 µM (inactive) each time.

Consider `FC(F)(F)c1ccc(CNc2ccc(Cc3c[nH]c4ncc(Cl)cc34)cn2)cn1` [PEXIDARTINIB], for which the Kd at DNA topoisomerase 2-beta is > 30 µM (inactive); in [1], 13.7 µM (active); in [2], > 30 µM (inactive); in assay [4], > 30 µM (inactive); in assay [5], > 30 µM (inactive); at Activin receptor type-2B it was > 30 µM (inactive). For the same compound, the Kd in assay [6] and in [7] was > 30 µM (inactive) throughout.

For `NC(=O)c1ccc(N(C(N)=O)c2c(F)cccc2F)nc1-c1ccc(F)cc1F` [VX-702], the Kd (at DNA topoisomerase 2-beta; in assay [1]; in assay [2]; in assay [3]; in assay [4]; in [5]) was > 30 µM (inactive) throughout. The Kd in assay [6] and in assay [7] was > 30 µM (inactive) throughout.

In the case of `COc1cc2ncnc(Nc3ccc(O)cc3)c2cc1OC` [WHI-P131], the Kd at DNA topoisomerase 2-beta is > 30 µM (inactive); in assay [1], 1.07 µM (active); in assay [2], > 30 µM (inactive); in assay [3], 1.54 µM (active); in [5] it was > 30 µM (inactive); at Activin receptor type-2B, > 30 µM (inactive). Further, the Kd in [6] and in [7] was > 30 µM (inactive) throughout.

For the compound `CNC(=O)c1cc(COc2nnc(Nc3ccc(Cl)cc3)c3ccoc23)ccn1` [TELATINIB], the Kd (at DNA topoisomerase 2-beta; in [1]; in [2]; in assay [3]; in [5]; on Activin receptor type-2B) was > 30 µM (inactive) each time. Besides, the Kd in [6] and in assay [7] was > 30 µM (inactive) throughout.

In the case of `COc1cccc(Nc2ncnn3ccc(CN4CC[C@@H](N)[C@H](O)C4)c23)c1` [BMS-690514], the Kd at DNA topoisomerase 2-beta was > 30 µM (inactive); in assay [1], 1.41 µM (active); in assay [2], > 30 µM (inactive); in assay [4], > 30 µM (inactive); on Activin receptor type-2B, > 30 µM (inactive); in [6] it was > 30 µM (inactive). For the same compound, the Kd in [7] was > 30 µM (inactive).

As for `Cc1ccc(C(=O)Nc2ccc(Oc3cc4cnn(C)c4cc3-c3cn[nH]c3)c(F)c2)c(=O)n1-c1ccc(F)cc1` [MERESTINIB], the Kd (on DNA topoisomerase 2-beta; in assay [1]; in assay [2]; in assay [3]; in assay [5]; on Activin receptor type-2B) was > 30 µM (inactive) in each case. Further, the Kd in assay [6] and in assay [7] was > 30 µM (inactive) each time.

As for `C=CC(=O)Nc1cc(Nc2nccc(-c3cn(C)c4ccccc34)n2)c(OC)cc1N(C)CCN(C)C` [OSIMERTINIB], the Kd (at DNA topoisomerase 2-beta; in [1]; in assay [2]; in assay [4]; in assay [5]; at Activin receptor type-2B) was > 30 µM (inactive) throughout. The Kd in [6] and in [7] was > 30 µM (inactive) throughout.

For the compound `O=C(O)c1ccc2c(c1)nc(Nc1cccc(Cl)c1)c1ccncc12` [SILMITASERTIB], the Kd was > 30 µM (inactive) on DNA topoisomerase 2-beta; > 30 µM (inactive) in assay [1]; 1.06 µM (active) in assay [2]; > 30 µM (inactive) in assay [3]; > 30 µM (inactive) in assay [5]; > 30 µM (inactive) at Activin receptor type-2B. The Kd in [6] and in assay [7] was > 30 µM (inactive) throughout.

With `Cc1c(NC(=O)OC[C@@H]2COCCN2)cn2ncnc(Nc3ccc4c(cnn4Cc4cccc(F)c4)c3)c12` [AC-480], the Kd (at DNA topoisomerase 2-beta; in assay [1]; in assay [2]; in [3]; in assay [4]; on Activin receptor type-2B) was > 30 µM (inactive) in each case. Moreover, the Kd in [6] and in assay [7] was > 30 µM (inactive) in each case.
